Experimental data published in patent US20260035403A1, “NUCLEOSIDE LINE-1 INHIBITORS” (TRANSPOSON THERAPEUTICS, INC., priority 2022, published 2026).

Tested on: human LINE-1
Experiment: Human LINE-1 retrotransposition assay (HeLa cell-based dual-luciferase reporter)
Settings: Human LINE-1 activity inhibition, HeLa cells, reporter plasmid pYX017, Firefly/Renilla, 72 h incubation
Experimental: Representative Compounds of the Disclosure were tested for inhibition of retrotransposition activity of human LINE-1 in HeLa cells according to the following procedure.
HeLa cervical cancer cells were cultivated at 37° C. in a humidified 5% CO2 incubator in Dulbecco's Modified Eagle's Medium (DMEM)—high glucose, with 4500 mg/L glucose, L-glutamine, sodium pyruvate and sodium bicarbonate (Sigma), supplemented with 10% of heat inactivated fetal bovine serum (Thermo Fisher).
Assays were performed using reporter plasmid pYX017 as described (Xie, et al., 2011) with several modifications. The reporter assay was performed in 96-well white optical bottom plates. HeLa cells were seeded in wells 24 h prior to transfection and compound treatment so that cells were approximately 30% confluent on the day of transfection. Different cell plating densities were tested and a density of 2×10^3 cells was determined to be optimal.
Compounds were resuspended in DMSO. Serial dilutions (1:3) were prepared in DMSO. Medium containing different concentrations of the compounds were prepared by adding 2 μl of the compound dilution to 1 ml of the culture medium. The final concentration of DMSO in the medium was 0.2%.
FuGENE® HD transfection reagent (Promega, E2311, Lot 382574 and Lot 397842) was used to transfect the plasmids into the cells. The transfection reagent: DNA mixture was prepared in OpiMEM (Thermo Fisher) according to manufacturer's instructions. Different ratios of transfection reagent to DNA were tested and a ratio of 3:1 was determined to be optimal. Culture medium was removed from the cells and discarded. The transfection reagent: DNA mixture (5 μl) was mixed with the compound containing medium (100 μl/well) and this was added onto the cells of each well. Cells were incubated at 37° C./5% CO2 for different incubation time. A 72 h incubation time was determined to be optimal.
Luciferase reporter activity was quantified with the Dual-Luciferase® Reporter Assay System (Promega) according to manufacturer's instructions for multiwell plates except that cells were lysed directly on the multiwell plate with 30 μl of the passive lysis buffer (PLB) for 20 min at room temperature, with gentle shaking to ensure complete cell lysis.
Firefly and Renilla luciferase signals were measured using a SpectraMax i3× Multi-Mode Microplate Reader. Integration times of 100 ms and 10 ms were used to measure the Firefly and Renilla signals respectively. Relative L1 activity is calculated as Firefly/Renilla*1000 or Firefly/Renilla*10,000. Dose response inhibition data were fit to a four parameter logistic equation using non-linear regression (using Graphpad Prism 8), to determine IC50 values for each inhibitor.

Compound | IC50 (Homo sapiens, HeLa, 72 h) [nM] | IC50 [nM]
CC[C@]1(CO)O[C@@H](n2cnc3c(O)ncnc32)C[C@@H]1O [Cpd. No. 1] | 62 | –
CC[C@]1(CO)O[C@@H](n2cc(Br)c(=O)[nH]c2=O)C[C@@H]1O [Cpd. No. 2, 5-bromo-1-((2R,4S,5R)-5-ethyl-4-hydroxy-5-(hydroxymethyl)tetrahydrofuran-2-yl)-4-hydroxypyrimidin-2(1H)-one] | 6900 | –
C#C[C@]1(CO)O[C@H](n2nc(C)c3c(N)nc(F)nc32)C[C@@H]1O [Cpd. No. 3, (2R,3S,5S)-5-(4-amino-6-fluoro-3-methyl-1H-pyrazolo[3,4-d]pyrimidin-1-yl)-2-ethynyl-2-(hydroxymethyl)tetrahydrofuran-3-ol] | 41 | –
C=C[C@]1(CO)O[C@@H](n2cnc3c(NC4CC4)nc(N)nc32)C[C@@H]1O [Cpd. No. 4, (2R,3S,5R)-5-(2-amino-6-(cyclopropylamino)-9H-purin-9-yl)-2-(hydroxymethyl)-2-vinyltetrahydrofuran-3-ol] | 401 | –
C=C[C@]1(CO)O[C@@H](n2cnc3c(NC4CC4)nc(F)nc32)C[C@@H]1O [Cpd. No. 5, (2R,3S,5R)-5-(6-(cyclopropylamino)-2-fluoro-9H-purin-9-yl)-2-(hydroxymethyl)-2-vinyltetrahydrofuran-3-ol] | 469 | –
C=C[C@]1(CO)O[C@@H](n2cc(OC)c(=O)[nH]c2=O)C[C@@H]1O [Cpd. No. 6, 1-((2R,4S,5R)-4-hydroxy-5-(hydroxymethyl)-5-vinyltetrahydrofuran-2-yl)-5-methoxypyrimidine-2,4(1H,3H)-dione] | > 50000 | –
C=C[C@]1(CO)O[C@@H](n2cc(F)c(N)nc2=O)C[C@@H]1O [Cpd. No. 8, 4-amino-5-fluoro-1-((2R,4S,5R)-4-hydroxy-5-(hydroxymethyl)-5-vinyltetrahydrofuran-2-yl)pyrimidin-2(1H)-one] | 9 | –
C=C[C@]1(CO)O[C@@H](n2cnc3c(O)nc(N)nc32)C[C@@H]1O [Cpd. No. 9, 2-amino-9-((2R,4S,5R)-4-hydroxy-5-(hydroxymethyl)-5-vinyltetrahydrofuran-2-yl)-1H-purin-6(9H)-one] | 13 | –
C#C[C@]1(CO)OC(n2cnc(C(N)=O)n2)C[C@@H]1O (stereo partly drawn) [Cpd. No. 11, 1-((4S,5R)-5-ethynyl-4-hydroxy-5-(hydroxymethyl)tetrahydrofuran-2-yl)-1H-1,2,4-triazole-3-carboxamide] | > 50000 | –
C=C[C@]1(CO)O[C@@H](n2cc(F)c(=O)[nH]c2=O)C[C@@H]1O [Cpd. No. 17, 5-fluoro-1-((2R,4S,5R)-4-hydroxy-5-(hydroxymethyl)-5-vinyltetrahydrofuran-2-yl)pyrimidine-2,4(1H,3H)-dione] | 2350 | –
CC[C@]1(CO)O[C@@H](n2cc(F)c(=O)[nH]c2=O)C[C@@H]1O [Cpd. No. 18, 1-((2R,4S,5R)-5-ethyl-4-hydroxy-5-(hydroxymethyl)tetrahydrofuran-2-yl)-5-fluoropyrimidine-2,4(1H,3H)-dione] | 3750 | –
C#C[C@@]1(CO)C=C[C@H](n2cc(F)c(=O)[nH]c2=O)O1 [Cpd. No. 19, 1-((2R,5R)-5-ethynyl-5-(hydroxymethyl)-2,5-dihydrofuran-2-yl)-5-fluoropyrimidine-2,4(1H,3H)-dione] | – | > 50000
CC[C@]1(CO)O[C@H](n2ccc(=O)[nH]c2=O)C[C@@H]1O [Cpd. No. 20, 1-((2S,4S,5R)-5-ethyl-4-hydroxy-5-(hydroxymethyl)tetrahydrofuran-2-yl)pyrimidine-2,4(1H,3H)-dione] | 7210 | –
C=C[C@]1(CO)O[C@@H](n2cc(C)c(=O)[nH]c2=O)C[C@@H]1O [Cpd. No. 62, 1-((2R,4S,5R)-4-hydroxy-5-(hydroxymethyl)-5-vinyltetrahydrofuran-2-yl)-5-methylpyrimidine-2,4(1H,3H)-dione] | 3670 | –
C=C[C@]1(CO)O[C@@H](n2cc(Br)c(=O)[nH]c2=O)C[C@@H]1O [Cpd. No. 64, 5-bromo-1-((2R,4S,5R)-4-hydroxy-5-(hydroxymethyl)-5-vinyltetrahydrofuran-2-yl)pyrimidine-2,4(1H,3H)-dione] | 9930 | –
